Consider 39 molecules from patent US10570117B2, “Phenylimidazole compound” (Otsuka Pharmaceutical Factory, Inc., priority 2015, dated 2020).

Values after ≈ are worked out from the molar mass of the structure shown. Like-named read-outs stand apart in the source and are kept apart here.

Series [1] concerns lipoprotein lipase (LPL) gene. As to the kind of experiment: LPL mRNA elevating action (RT-PCR quantification of LPL mRNA in C2Cl2 cells). It is filed as cell-based, mouse. The note with it: Mus musculus, 24 h, compound 10 μM, ratio relative to the amount of LPL mRNA in cells with DMSO only, read-out: Rate of increase in LPL mRNA. As to the method:
LPL mRNA Elevating Action
C2Cl2 cells (cell strain derived from striated muscle of mouse) were seeded in 96-well plates using a DMEM medium (Gibco) (containing 2 mM L-glutamine and 10% fetal bovine serum). After the cells were grown, the medium was removed. Subsequently, media obtained by adding dimethyl sulfoxide (DMSO) solutions of the compounds to the same medium as described above to a concentration of 10 μM were individually added to the cells and allowed to stand for 24 hours. The compound-containing media were removed, and the plates were washed with phosphate buffered saline. Thereafter, the remaining cells were lysed and subjected to a reverse transcription polymerase chain reaction (RT-PCR reaction) to obtain cDNA. Primers specific to lipoprotein lipase (LPL) gene, a necessary enzyme, etc., were added to the obtained cDNA. The mixture was set in 7500 Fast Real Time PCR System produced by Applied Biosystem to perform a PCR reaction (20 cycles) and the amount of LPL mRNA amplified was quantified. The LPL mRNA elevating action of each compound in the test cells was indicated as the ratio relative to the amount of LPL mRNA in cells allowed to stand in a medium to which only DMSO was added, with the amount being defined as 1.
As Comparative Example 1, a test was performed in the same manner as above, using a compound disclosed as the compound of Example 57 in WO2010/090200.

Series [2] in a line: Solubility in gastric juice or intestinal juice model fluid (precipitation method using DMSO). It is filed as physicochemical. The note with it: room temperature. The essentials: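 Dissolved amount (μg/mL) quantified by UV of filtrate versus pre-made calibration curves. Precipitation approach: DMSO solutions spiked into pH 1.2 (JP 1st fluid) or pH 6.8 (JP 2nd fluid) medium, shaken at room temperature for 24 h before insolubles were filtered off.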

[3] abbreviates: pH 1.2, simulated gastric fluid, kinetic from dmso stock, 1st fluid for Disintegration Test of Japanese Pharmacopoeia (pH: 1.2), read-out: Solubility (μg/mL) 1st fluid.
Setting [4] is: pH 6.8, kinetic from dmso stock, 2nd fluid for Disintegration Test of Japanese Pharmacopoeia (pH: 6.8), read-out: Solubility (μg/mL) 2nd fluid.

For orientation: melting point means the temperature, or range, at which the solid turns liquid. In turn, `COc1cc(OCc2cnc(Cl)cn2)ccc1-c1c[nH]c(-c2ccc(Cl)nc2)n1` [Example 20] gave a melting point of 219 to 221 °C. The fold induction at 10 µM in series [1] came out at 2.78.

Molecule `COc1cc(OCc2ccc(C(F)(F)F)nc2)ccc1-c1c[nH]c(-c2ccc(Cl)cn2)n1` [Example 32] showed a melting point of 186 to 189 °C. Also, in series [1], the fold induction at 10 µM was determined as 2.58.

`COc1cc(OCc2ncccc2C#N)ccc1-c1c[nH]c(-c2ccc(Cl)nc2)n1` [Example 33] yielded a melting point of 193 to 195 °C. Also, the fold induction at 10 µM in series [1] came out at 2.92.

In turn, `COc1cc(OCc2cccc(C(F)(F)F)n2)ccc1-c1c[nH]c(-c2ccc(Cl)nc2)n1` [Example 36] showed a melting point of 222 to 224 °C. Besides, the fold induction at 10 µM in series [1] came out at 2.4.

As for `COc1cc(-c2c[nH]c(-c3ccc(Cl)nc3)n2)cc(OC)c1OCc1ccc(C(F)(F)F)cn1` [Example 71], the melting point is 171 to 173 °C (dec.). The fold induction at 10 µM in series [1] was 2.37.

As for `COc1cc(OCc2cnc(Cl)cn2)ccc1-c1c[nH]c(-c2ccc(F)nc2)n1` [Example 123], the melting point lay within 197 to 199 °C. Moreover, in series [1], the fold induction at 10 µM was found to be 3.22.

In turn, `COc1cc(OCc2ncc(Cl)cc2Br)ccc1-c1cnc(-c2ccc(F)nc2)[nH]1` [Example 134] yielded a melting point of 176 to 180 °C. Further, the fold induction at 10 µM in series [1] was determined as 2.85.

For `COc1cc(OCc2ccc(F)cc2F)ccc1-c1cnc(-c2ccc(F)nc2)[nH]1` [Example 142], the melting point is 168 to 173 °C. Also, in series [1], the fold induction at 10 µM stood at 2.27.

In turn, `COc1cc(OCc2cccc(C(F)(F)F)n2)ccc1-c1[nH]c(-c2ccc(F)nc2)nc1Cl` [Example 172] came in with a melting point of 189 to 191 °C. Besides, in series [1], the fold induction at 10 µM was found to be 3.12.

Take `COc1cc(OCc2ccc(C(F)(F)F)cc2)ccc1-c1[nH]c(-c2ccc(F)nc2)nc1Cl` [Example 176]: the melting point was 163 to 166 °C. Also, the fold induction at 10 µM in series [1] came out at 2.83.

Regarding `COc1cc(OCc2ccc(C(F)(F)F)nc2)ccc1-c1nc(-c2ccc(Cl)nc2)[nH]c1Br` [Example 222], the melting point is 222 to 223 °C (dec.). Further, in series [1], the fold induction at 10 µM worked out at 2.89.

Turning to `COc1cc(OCc2ccc(C(F)(F)F)nc2)ccc1-c1nc(-c2ccc(F)nc2)[nH]c1Br` [Example 224, 5-[(4-(4-bromo-2-(6-fluoropyridin-3-yl)-1H-imidazol-5-yl)-3-methoxyphenoxy)methyl]-2-(trifluoromethyl)pyridine], the melting point is 195 to 197 °C (dec.). In addition, the fold induction at 10 µM in series [1] is 2.29.

In turn, `COc1cc(OCc2ccc(C(F)(F)F)nc2)ccc1-c1nc(-c2ccc(F)nc2)[nH]c1Cl` [Example 227] came in with a melting point of 176 to 177 °C. Moreover, the fold induction at 10 µM in series [1] amounted to 5.08.

`COc1cc(OCc2ccc(C(F)(F)F)nc2)ccc1-c1nc(-c2ccc(Cl)nc2)[nH]c1Cl` [Example 229]: the melting point lay within 205 to 208 °C. For the same molecule, the fold induction at 10 µM in series [1] was determined as 2.62.

In turn, `COc1cc(OCc2ccc(C(F)(F)F)cn2)ccc1-c1nc(-c2ccc(Cl)nc2)[nH]c1Cl` [Example 235] returned a melting point of 180 to 182 °C. In addition, in series [1], the fold induction at 10 µM was 2.78.

Take `COc1cc(OCc2cncc(C(F)(F)F)c2)ccc1-c1[nH]c(-c2ccc(Cl)nc2)nc1Cl` [Example 241]: the melting point was in the range of 198 to 201 °C. Further, the fold induction at 10 µM in series [1] stood at 2.45.

`COc1cc(OCc2ccnc(C(F)(F)F)c2)ccc1-c1[nH]c(-c2ccc(Cl)nc2)nc1Cl` [Example 242] had a melting point of 236 to 239 °C. The fold induction at 10 µM in series [1] was found to be 2.38.

As to `COc1cc(OCc2ncc(Cl)cc2F)ccc1-c1[nH]c(-c2ccc(Cl)nc2)nc1Br` [Example 248], the melting point was 172 to 176 °C. Further, the fold induction at 10 µM in series [1] amounted to 2.36.

`COc1cc(OCc2ncc(Cl)cc2F)ccc1-c1[nH]c(-c2ccc(Cl)nc2)nc1Cl` [Example 249]: the melting point was in the range of 174 to 181 °C. Also, the fold induction at 10 µM in series [1] stood at 2.5.

As to `COc1cc(OCc2cncc(C(F)(F)F)c2)ccc1-c1[nH]c(-c2ccc(Cl)nc2)nc1Br` [Example 252], the melting point was 186 to 199 °C. For the same molecule, the fold induction at 10 µM in series [1] came to 2.58.

The molecule `COc1cc(OCc2ncc(C(F)(F)F)cc2Br)ccc1-c1[nH]c(-c2ccc(F)nc2)nc1Br` [Example 254] registered a melting point of 148 to 170 °C. Moreover, the fold induction at 10 µM in series [1] worked out at 2.71.

Molecule `COc1cc(OCc2ccc(F)cc2F)ccc1-c1[nH]c(-c2ccc(F)nc2)nc1Br` [Example 258] gave a melting point of 164 to 166 °C. For the same molecule, the fold induction at 10 µM in series [1] was 2.91.

The molecule `COc1cc(OCc2ccc(Cl)cc2F)ccc1-c1[nH]c(-c2ccc(F)nc2)nc1Br` [Example 259] returned a melting point of 165 to 167 °C. Besides, the fold induction at 10 µM in series [1] came out at 2.93.

The molecule `COc1cc(OCc2ccc(Br)cc2F)ccc1-c1[nH]c(-c2ccc(F)nc2)nc1Br` [Example 260] registered a melting point of 158 to 161 °C. For the same molecule, the fold induction at 10 µM in series [1] came to 2.95.

As to `COc1cc(OCc2ncc(C(F)(F)F)cc2Cl)ccc1-c1[nH]c(-c2ccc(F)nc2)nc1Br` [Example 261], the melting point lay in the range of 179 to 180 °C. Besides, in series [1], the fold induction at 10 µM was 4.08.

Turning to `COc1cc(OCc2ncc(C(F)(F)F)cc2Cl)ccc1-c1[nH]c(-c2ccc(F)nc2)nc1Cl` [Example 262], the melting point lay within 160 to 162 °C. Also, the fold induction at 10 µM in series [1] came to 3.61.

In turn, `COc1cc(OCc2ncc(C(F)(F)F)cc2Br)ccc1-c1[nH]c(-c2ccc(F)nc2)nc1Cl` [Example 263] had a melting point of 166 to 170 °C. For the same molecule, the fold induction at 10 µM in series [1] came to 3.18.

As for `COc1cc(OCc2ncc(Cl)cc2Br)ccc1-c1[nH]c(-c2ccc(F)nc2)nc1Br` [Example 264], the melting point fell in the range of 196 to 203 °C. Moreover, in series [1], the fold induction at 10 µM is 2.99.

For the molecule `COc1cc(OCc2ccnc(C(F)(F)F)c2)ccc1-c1[nH]c(-c2ccc(F)nc2)nc1Br` [Example 271], the melting point is 223 to 225 °C (dec.). Moreover, the fold induction at 10 µM in series [1] came out at 3.39.

For `COc1cc(OCc2cccc(C(F)(F)F)n2)ccc1-c1[nH]c(-c2ccc(F)nc2)nc1Br` [Example 273], the melting point is 200 to 202 °C (dec.). Further, the fold induction at 10 µM in series [1] is 2.5.

With `COc1cc(OCc2ccncc2C(F)(F)F)ccc1-c1[nH]c(-c2ccc(F)nc2)nc1Cl` [Example 277], the melting point fell in the range of 203 to 208 °C. Further, the fold induction at 10 µM in series [1] worked out at 2.66.

`COc1cc(OCc2cccnc2C(F)(F)F)ccc1-c1[nH]c(-c2ccc(F)nc2)nc1Br` [Example 278] yielded a melting point of 176 to 179 °C. In series [1], the fold induction at 10 µM was found to be 2.95.

With `COc1cc(OCc2ncc(Cl)cc2C(F)(F)F)ccc1-c1[nH]c(-c2ccc(F)nc2)nc1Cl` [Example 280], the melting point is 156 to 158 °C. The fold induction at 10 µM in series [1] came to 2.91.

With `COc1cc(OCc2ccc(F)cc2F)ccc1-c1[nH]c(-c2ccc(F)nc2)nc1Cl` [Example 285], the melting point is 163 to 165 °C. For the same molecule, the fold induction at 10 µM in series [1] was found to be 3.01.

Take `COc1cc(OCc2cccnc2C(F)(F)F)ccc1-c1[nH]c(-c2ccc(F)nc2)nc1Cl` [Example 287]: the melting point is 165 to 171 °C. In addition, the fold induction at 10 µM in series [1] is 3.53.

As to `COc1cc(OCc2ccc(C(F)(F)F)nc2)ccc1-c1c(Br)nc(-c2ccc(Cl)nc2)n1C` [Example 299], the melting point lay in the range of 140 to 142 °C. Moreover, the fold induction at 10 µM in series [1] worked out at 2.97.

Turning to `COc1cc(-c2cnc(-c3ccc(F)nc3)[nH]2)ccc1OC(C)c1ncc(C(F)(F)F)cc1F` (stereo not drawn) [Example 392], the results for the solubility at 24 h in series [2] (setting [3]) and in series [2] (setting [4]) were 60.8 µg/mL (≈ 128 µM) and < 0.3 µg/mL, respectively. Also, the fold induction at 10 µM in series [1] came to 1.73.

Take `Fc1ccc(-c2ncc(-c3ccc(OCc4ncc(C(F)(F)F)cc4F)cc3OCc3ccccc3)[nH]2)cn1` [Example 398, 2-[(3-(benzyloxy)-4-(2-(6-fluoropyridin-3-yl)-1H-imidazol-5-yl)phenoxy)methyl]-3-fluoro-5-(trifluoromethyl)pyridine]: the solubility at 24 h was 79.2 µg/mL (≈ 147 µM) in series [2] (setting [3]) and 39.7 µg/mL (≈ 73.7 µM) in series [2] (setting [4]). In addition, the fold induction at 10 µM in series [1] is 2.22.

For the molecule `COc1cc(OCc2ncc(C(F)(F)F)cc2F)ccc1-c1[nH]c(-c2ccc(F)nc2)nc1CO` [Example 413, [5-(4-((3-fluoro-5-(trifluoromethyl)pyridin-2-yl)methoxy)-2-methoxyphenyl)-2-(6-fluoropyridin-3-yl)-1H-imidazol-4-yl]methanol], the solubility at 24 h is 37 µg/mL (≈ 75.1 µM) in series [2] (setting [3]) and 2.9 µg/mL (≈ 5.89 µM) in series [2] (setting [4]). Moreover, in series [1], the fold induction at 10 µM was found to be 2.06.
